# Data taken from patent publication US20230148005A1, “MACROCYCLIC COMPOUNDS AND USES THEREOF” (THESEUS PHARMACEUTICALS, INC., priority 2020, published 2023).
# Columns and labels:
# EGFR^L858R/T790M/C^797S = EGFR^L858R/T790M/C^797S (Homo sapiens, UniProt P00533, C797S/L858R/T790M); assay: in vitro kinase assay (HTRF KinEASE-TK kit), LTC; type: biochemical; conditions: kinase inhibition
# From the text: (§1) Assays using an in vitro kinase assay kit (HTRF KinEASE-TK kit) can be used to study the inhibitory activity of compounds described herein with respect to EGFR mutants such as EGFR^L858R, EGFR^L58R/T790M, and EGFR^L858R/T790M/C^797S.
# EGFR^L58R/T790M = EGFR^L58R/T790M (Homo sapiens, UniProt P00533, L858R/T790M); assay: in vitro kinase assay (HTRF KinEASE-TK kit), LT; type: biochemical; conditions: kinase inhibition
# From the text: as §1
# EGFR^L858R = EGFR^L858R (Homo sapiens, UniProt P00533, L858R); assay: in vitro kinase assay (HTRF KinEASE-TK kit), L; type: biochemical; conditions: kinase inhibition
# From the text: as §1
# [1] = biological target: Ba/F3 EGFR-Del19/T790M/C797S (Homo sapiens, UniProt P00533, T790M/C797S, cells depend on it, form not given); assay: Ba/F3 viability assay (CellTiter-Glo), DTC; type: cell-based; conditions: anti-proliferation, read-out: BaF3 DTC IC50
# From the text: (§2) Inhibition of cell proliferation can be studied using Ba/F3 viability assays, including the Promega CellTiter-Glo cell viability assay. This assay can be used to study the effect of compounds described herein in the following assays: (1) Ba/F3 Parental; (2) Ba/F3 EGFR-Del19/T790M; (3); Ba/F3 EGFR-Del19/C797S; and (4) Ba/F3 EGFR-Del19/T790M/C797S.
# Ba/F3 EGFR-Del19/T790M = Ba/F3 EGFR-Del19/T790M (Homo sapiens, UniProt P00533, T790M, cells depend on it, form not given); assay: Ba/F3 viability assay (CellTiter-Glo), DT; type: cell-based; conditions: anti-proliferation, read-out: BaF3 DT IC50
# From the text: as §2
# Ba/F3 EGFR-Del19/C797S = Ba/F3 EGFR-Del19/C797S (Homo sapiens, UniProt P00533, C797S, cells depend on it, form not given); assay: Ba/F3 viability assay (CellTiter-Glo), DC; type: cell-based; conditions: anti-proliferation, read-out: BaF3 DC IC50
# From the text: as §2
# Ba/F3 Parental = assay: Ba/F3 viability assay (CellTiter-Glo), parental; type: cell-based; conditions: Mus musculus, BaF3, anti-proliferation
# From the text: as §2
# Chain of EGFR^L58R/T790M (P00533 25-1210 T790M/L858R): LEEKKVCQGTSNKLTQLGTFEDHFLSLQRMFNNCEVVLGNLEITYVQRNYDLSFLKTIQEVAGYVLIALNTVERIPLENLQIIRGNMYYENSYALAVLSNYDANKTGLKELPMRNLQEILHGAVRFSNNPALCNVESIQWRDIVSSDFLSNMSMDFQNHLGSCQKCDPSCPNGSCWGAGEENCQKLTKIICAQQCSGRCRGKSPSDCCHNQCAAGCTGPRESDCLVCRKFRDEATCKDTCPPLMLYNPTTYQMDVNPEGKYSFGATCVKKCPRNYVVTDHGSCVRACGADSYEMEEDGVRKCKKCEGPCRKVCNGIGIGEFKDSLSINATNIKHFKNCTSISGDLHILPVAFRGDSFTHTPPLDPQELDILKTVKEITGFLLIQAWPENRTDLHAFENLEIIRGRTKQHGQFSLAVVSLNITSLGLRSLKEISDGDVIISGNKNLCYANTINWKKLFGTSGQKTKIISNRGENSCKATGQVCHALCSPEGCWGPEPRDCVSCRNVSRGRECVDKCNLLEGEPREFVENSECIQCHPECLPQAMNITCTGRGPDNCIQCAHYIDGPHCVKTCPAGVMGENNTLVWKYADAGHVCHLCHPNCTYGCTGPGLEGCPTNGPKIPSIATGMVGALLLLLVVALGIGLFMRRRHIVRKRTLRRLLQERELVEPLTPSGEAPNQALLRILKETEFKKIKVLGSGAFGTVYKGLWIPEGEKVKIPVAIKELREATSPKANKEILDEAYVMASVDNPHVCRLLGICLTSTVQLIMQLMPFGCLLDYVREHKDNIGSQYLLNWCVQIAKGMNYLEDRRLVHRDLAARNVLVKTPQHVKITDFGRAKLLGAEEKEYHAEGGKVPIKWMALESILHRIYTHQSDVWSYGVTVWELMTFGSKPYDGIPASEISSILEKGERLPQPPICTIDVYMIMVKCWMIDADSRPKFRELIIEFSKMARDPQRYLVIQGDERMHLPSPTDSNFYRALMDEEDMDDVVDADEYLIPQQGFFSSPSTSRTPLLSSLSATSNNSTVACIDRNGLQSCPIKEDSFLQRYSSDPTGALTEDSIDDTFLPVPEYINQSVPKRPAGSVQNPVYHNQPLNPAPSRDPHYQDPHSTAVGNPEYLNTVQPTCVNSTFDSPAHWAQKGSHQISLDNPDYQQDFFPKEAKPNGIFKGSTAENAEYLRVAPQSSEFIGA
# Chain of EGFR^L858R/T790M/C^797S (P00533 25-1210 T790M/C797S/L858R): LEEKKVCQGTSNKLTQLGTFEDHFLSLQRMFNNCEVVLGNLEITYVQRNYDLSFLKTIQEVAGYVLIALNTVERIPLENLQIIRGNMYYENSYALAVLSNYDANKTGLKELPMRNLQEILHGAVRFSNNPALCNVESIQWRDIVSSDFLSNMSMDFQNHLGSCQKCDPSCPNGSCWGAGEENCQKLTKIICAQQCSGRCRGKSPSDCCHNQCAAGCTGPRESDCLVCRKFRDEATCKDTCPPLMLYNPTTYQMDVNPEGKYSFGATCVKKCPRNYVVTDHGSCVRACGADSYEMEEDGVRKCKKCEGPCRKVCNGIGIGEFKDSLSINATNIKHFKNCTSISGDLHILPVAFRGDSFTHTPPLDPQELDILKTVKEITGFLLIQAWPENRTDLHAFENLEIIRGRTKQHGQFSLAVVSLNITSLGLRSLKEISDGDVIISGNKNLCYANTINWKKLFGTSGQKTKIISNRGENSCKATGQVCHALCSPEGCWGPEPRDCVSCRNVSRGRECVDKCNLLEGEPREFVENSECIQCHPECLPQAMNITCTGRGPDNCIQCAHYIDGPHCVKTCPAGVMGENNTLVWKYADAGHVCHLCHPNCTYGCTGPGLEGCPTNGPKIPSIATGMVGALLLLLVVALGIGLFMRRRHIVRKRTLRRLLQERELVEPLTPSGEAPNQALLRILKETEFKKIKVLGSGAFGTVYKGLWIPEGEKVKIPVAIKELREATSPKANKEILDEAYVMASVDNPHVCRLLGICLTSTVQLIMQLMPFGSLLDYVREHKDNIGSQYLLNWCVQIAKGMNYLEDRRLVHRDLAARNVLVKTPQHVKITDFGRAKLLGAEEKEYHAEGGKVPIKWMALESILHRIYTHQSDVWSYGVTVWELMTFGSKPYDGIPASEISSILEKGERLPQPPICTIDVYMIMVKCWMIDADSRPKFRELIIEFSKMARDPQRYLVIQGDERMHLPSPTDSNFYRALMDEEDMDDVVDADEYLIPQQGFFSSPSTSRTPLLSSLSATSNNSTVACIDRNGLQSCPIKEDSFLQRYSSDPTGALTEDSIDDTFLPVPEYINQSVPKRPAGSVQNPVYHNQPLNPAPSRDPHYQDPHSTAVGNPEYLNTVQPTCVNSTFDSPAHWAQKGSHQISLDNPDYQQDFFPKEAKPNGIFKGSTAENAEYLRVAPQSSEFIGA
# Chain of EGFR^L858R (P00533 25-1210 L858R): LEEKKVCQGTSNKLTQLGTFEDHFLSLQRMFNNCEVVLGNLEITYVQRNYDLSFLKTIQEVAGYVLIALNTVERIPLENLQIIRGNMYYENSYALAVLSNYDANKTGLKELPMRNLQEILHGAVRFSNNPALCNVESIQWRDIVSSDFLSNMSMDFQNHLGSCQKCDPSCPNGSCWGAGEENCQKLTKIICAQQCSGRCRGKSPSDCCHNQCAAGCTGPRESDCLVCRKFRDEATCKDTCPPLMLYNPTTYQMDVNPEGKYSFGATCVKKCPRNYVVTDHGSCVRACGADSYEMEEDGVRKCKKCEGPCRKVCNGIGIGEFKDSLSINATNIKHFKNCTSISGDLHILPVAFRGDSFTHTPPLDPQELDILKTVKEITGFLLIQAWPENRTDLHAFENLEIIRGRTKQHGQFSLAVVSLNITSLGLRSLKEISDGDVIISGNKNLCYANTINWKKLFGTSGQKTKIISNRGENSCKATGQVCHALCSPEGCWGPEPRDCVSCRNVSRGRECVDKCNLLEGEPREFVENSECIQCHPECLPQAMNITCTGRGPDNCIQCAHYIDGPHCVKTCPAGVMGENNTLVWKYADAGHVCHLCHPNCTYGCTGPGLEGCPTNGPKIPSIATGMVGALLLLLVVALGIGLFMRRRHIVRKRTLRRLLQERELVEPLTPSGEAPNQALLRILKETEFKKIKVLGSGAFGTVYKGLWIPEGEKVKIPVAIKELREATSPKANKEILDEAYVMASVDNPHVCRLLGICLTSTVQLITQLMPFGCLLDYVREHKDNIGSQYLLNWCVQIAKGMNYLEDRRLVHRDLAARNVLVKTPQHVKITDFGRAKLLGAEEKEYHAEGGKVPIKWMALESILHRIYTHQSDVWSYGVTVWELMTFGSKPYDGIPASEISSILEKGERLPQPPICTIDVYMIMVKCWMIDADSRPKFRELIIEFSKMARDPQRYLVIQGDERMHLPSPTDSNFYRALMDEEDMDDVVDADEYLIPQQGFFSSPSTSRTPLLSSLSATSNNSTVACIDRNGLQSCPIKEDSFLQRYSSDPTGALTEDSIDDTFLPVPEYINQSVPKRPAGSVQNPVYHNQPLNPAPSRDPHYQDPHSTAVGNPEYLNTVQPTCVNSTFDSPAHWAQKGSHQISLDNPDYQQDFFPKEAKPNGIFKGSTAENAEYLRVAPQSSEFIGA
# Chain of Ba/F3 EGFR-Del19/T790M/C797S (P00533 with tags, fused parts or gaps DEL746-750/T790M/C797S, form open): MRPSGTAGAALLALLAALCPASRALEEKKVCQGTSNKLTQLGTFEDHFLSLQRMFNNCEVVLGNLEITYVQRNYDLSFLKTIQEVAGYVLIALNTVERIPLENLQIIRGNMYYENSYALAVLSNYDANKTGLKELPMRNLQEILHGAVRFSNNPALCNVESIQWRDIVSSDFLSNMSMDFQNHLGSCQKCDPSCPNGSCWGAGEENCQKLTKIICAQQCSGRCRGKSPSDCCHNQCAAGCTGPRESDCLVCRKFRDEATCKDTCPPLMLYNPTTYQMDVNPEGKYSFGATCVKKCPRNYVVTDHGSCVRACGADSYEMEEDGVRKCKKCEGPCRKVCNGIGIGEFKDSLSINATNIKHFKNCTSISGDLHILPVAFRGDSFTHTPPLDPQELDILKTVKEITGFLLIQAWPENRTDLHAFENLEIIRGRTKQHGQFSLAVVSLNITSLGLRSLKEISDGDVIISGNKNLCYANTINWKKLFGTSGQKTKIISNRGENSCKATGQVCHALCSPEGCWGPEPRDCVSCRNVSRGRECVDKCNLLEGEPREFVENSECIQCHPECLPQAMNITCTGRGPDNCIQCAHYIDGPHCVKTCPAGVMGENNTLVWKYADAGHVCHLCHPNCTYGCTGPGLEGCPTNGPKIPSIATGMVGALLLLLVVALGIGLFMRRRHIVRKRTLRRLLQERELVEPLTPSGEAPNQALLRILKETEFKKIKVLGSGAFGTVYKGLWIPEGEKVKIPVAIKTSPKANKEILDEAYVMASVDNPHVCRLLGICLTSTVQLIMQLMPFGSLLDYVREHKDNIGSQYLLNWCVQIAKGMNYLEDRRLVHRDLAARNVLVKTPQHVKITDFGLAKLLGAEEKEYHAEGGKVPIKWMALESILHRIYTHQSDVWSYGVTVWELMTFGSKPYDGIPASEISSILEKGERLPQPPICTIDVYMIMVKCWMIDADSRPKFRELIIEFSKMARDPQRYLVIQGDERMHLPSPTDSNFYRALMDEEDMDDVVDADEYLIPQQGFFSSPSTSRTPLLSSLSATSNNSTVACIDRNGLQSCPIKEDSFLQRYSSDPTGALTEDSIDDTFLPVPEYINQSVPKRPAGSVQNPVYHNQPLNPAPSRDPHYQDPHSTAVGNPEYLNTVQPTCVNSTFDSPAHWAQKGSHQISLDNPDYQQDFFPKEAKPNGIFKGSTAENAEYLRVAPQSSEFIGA
compound,measurement,setting,value
C[C@H]1CCOc2c(cnn2C)-c2nccc(n2)Nc2cc3c(cn2)c(-c2cccc(OCCN(C)C)c2)nn31 [(110)],IC50,EGFR^L858R/T790M/C^797S,< 10 nM
same,IC50,EGFR^L58R/T790M,< 10 nM
same,IC50,EGFR^L858R,< 10 nM
same,GI50,[1],< 10 nM
same,GI50,Ba/F3 EGFR-Del19/T790M,< 10 nM
same,GI50,Ba/F3 EGFR-Del19/C797S,< 10 nM
same,IC50,Ba/F3 Parental,100 to 1000 nM
C[C@H]1CCOc2c(cnn2C)-c2nccc(n2)Nc2cc3c(cn2)c(-c2cccc(N4CCC(O)CC4)c2)nn31 [(111)],IC50,EGFR^L858R/T790M/C^797S,< 10 nM
same,IC50,EGFR^L58R/T790M,< 10 nM
same,IC50,EGFR^L858R,< 10 nM
same,GI50,[1],< 10 nM
same,GI50,Ba/F3 EGFR-Del19/T790M,< 10 nM
same,GI50,Ba/F3 EGFR-Del19/C797S,10 to 100 nM
same,IC50,Ba/F3 Parental,100 to 1000 nM
C[C@H]1CCOc2c(cnn2C)-c2nccc(n2)Nc2cc3c(cn2)c(N2CC[C@@H](O)C2)nn31 [(112)],IC50,EGFR^L858R/T790M/C^797S,< 10 nM
same,IC50,EGFR^L58R/T790M,< 10 nM
same,IC50,EGFR^L858R,< 10 nM
same,GI50,[1],< 10 nM
same,GI50,Ba/F3 EGFR-Del19/T790M,< 10 nM
same,GI50,Ba/F3 EGFR-Del19/C797S,10 to 100 nM
same,IC50,Ba/F3 Parental,100 to 1000 nM
C[C@H]1CCOc2c(cnn2C)-c2nccc(n2)Nc2cc3c(cn2)c(N2CC[C@H](O)C2)nn31 [(113)],IC50,EGFR^L858R/T790M/C^797S,< 10 nM
same,IC50,EGFR^L58R/T790M,< 10 nM
same,IC50,EGFR^L858R,< 10 nM
same,GI50,[1],< 10 nM
same,GI50,Ba/F3 EGFR-Del19/T790M,< 10 nM
same,GI50,Ba/F3 EGFR-Del19/C797S,< 10 nM
same,IC50,Ba/F3 Parental,100 to 1000 nM
C[C@H]1CCOc2c(cnn2C)-c2nccc(n2)Nc2cc3c(cn2)c(-c2cn(C)cn2)nn31 [(114)],IC50,EGFR^L858R/T790M/C^797S,< 10 nM
same,IC50,EGFR^L58R/T790M,< 10 nM
same,IC50,EGFR^L858R,10 to 100 nM
same,GI50,[1],10 to 100 nM
same,GI50,Ba/F3 EGFR-Del19/T790M,10 to 100 nM
same,GI50,Ba/F3 EGFR-Del19/C797S,10 to 100 nM
same,IC50,Ba/F3 Parental,100 to 1000 nM
C[C@H]1CCOc2c(cnn2C)-c2nccc(n2)Nc2cc3c(cn2)c(-c2cnn(CCCN4CCOCC4)c2)nn31 [(115)],IC50,EGFR^L858R/T790M/C^797S,< 10 nM
same,IC50,EGFR^L58R/T790M,< 10 nM
same,IC50,EGFR^L858R,10 to 100 nM
same,GI50,[1],10 to 100 nM
same,GI50,Ba/F3 EGFR-Del19/T790M,10 to 100 nM
same,GI50,Ba/F3 EGFR-Del19/C797S,10 to 100 nM
same,IC50,Ba/F3 Parental,100 to 1000 nM
C[C@H]1CCOc2c(cnn2C)-c2nccc(n2)Nc2cc3c(cn2)c(-c2cnn(CCN4CCOCC4)c2)nn31 [(116)],IC50,EGFR^L858R/T790M/C^797S,< 10 nM
same,IC50,EGFR^L58R/T790M,< 10 nM
same,IC50,EGFR^L858R,10 to 100 nM
same,GI50,[1],10 to 100 nM
same,GI50,Ba/F3 EGFR-Del19/T790M,10 to 100 nM
same,GI50,Ba/F3 EGFR-Del19/C797S,10 to 100 nM
same,IC50,Ba/F3 Parental,100 to 1000 nM
CCN(CC)CCn1cc(-c2nn3c4cc(ncc24)Nc2ccnc(n2)-c2cnn(C)c2OCC[C@@H]3C)cn1 [(117)],IC50,EGFR^L858R/T790M/C^797S,< 10 nM
same,IC50,EGFR^L58R/T790M,< 10 nM
same,IC50,EGFR^L858R,< 10 nM
same,GI50,[1],< 10 nM
same,GI50,Ba/F3 EGFR-Del19/T790M,< 10 nM
same,GI50,Ba/F3 EGFR-Del19/C797S,10 to 100 nM
same,IC50,Ba/F3 Parental,10 to 100 nM
CC(C)N1CCN(Cc2csc(-c3nn4c5cc(ncc35)Nc3ccnc(n3)-c3cnn(C)c3OCC[C@@H]4C)n2)CC1 [(118)],IC50,EGFR^L858R/T790M/C^797S,< 10 nM
same,IC50,EGFR^L58R/T790M,< 10 nM
same,IC50,EGFR^L858R,10 to 100 nM
same,GI50,[1],10 to 100 nM
same,GI50,Ba/F3 EGFR-Del19/T790M,100 to 1000 nM
same,GI50,Ba/F3 EGFR-Del19/C797S,100 to 1000 nM
same,IC50,Ba/F3 Parental,≥ 1000 nM
C[C@H]1CCOc2c(cnn2C)-c2nccc(n2)Nc2cc3c(cn2)c(-c2ccc(CN4CCNCC4)n2C)nn31 [(119)],IC50,EGFR^L858R/T790M/C^797S,< 10 nM
same,IC50,EGFR^L58R/T790M,< 10 nM
same,IC50,EGFR^L858R,< 10 nM
same,GI50,[1],< 10 nM
same,GI50,Ba/F3 EGFR-Del19/T790M,< 10 nM
same,GI50,Ba/F3 EGFR-Del19/C797S,< 10 nM
same,IC50,Ba/F3 Parental,100 to 1000 nM
C[C@H]1CCOc2c(cnn2C)-c2nccc(n2)Nc2cc3c(cn2)c(-c2ccc(CN4CCOCC4)n2C)nn31 [(120)],IC50,EGFR^L858R/T790M/C^797S,< 10 nM
same,IC50,EGFR^L58R/T790M,< 10 nM
same,IC50,EGFR^L858R,< 10 nM
same,GI50,[1],< 10 nM
same,GI50,Ba/F3 EGFR-Del19/T790M,< 10 nM
same,GI50,Ba/F3 EGFR-Del19/C797S,10 to 100 nM
same,IC50,Ba/F3 Parental,100 to 1000 nM
C[C@H]1CCOc2c(cnn2C)-c2nccc(n2)Nc2cc3c(cn2)c(-c2ccc(CN4CCCCC4)n2C)nn31 [(121)],IC50,EGFR^L858R/T790M/C^797S,< 10 nM
same,IC50,EGFR^L58R/T790M,< 10 nM
same,IC50,EGFR^L858R,< 10 nM
same,GI50,[1],< 10 nM
same,GI50,Ba/F3 EGFR-Del19/T790M,< 10 nM
same,GI50,Ba/F3 EGFR-Del19/C797S,< 10 nM
same,IC50,Ba/F3 Parental,100 to 1000 nM
